Data published in patent US9012655B2, “Antimicrobial/adjuvant compounds and methods” (Denouamed, Inc., priority 2011, dated 2015).
In brackets after ≈: the same amount, converted by molar mass.

Columns and labels:
[1] = tested on: Streptococcus pneumoniae Group A; assay: MIC against Streptococcus pneumoniae Group A; format: cell-based; details: initial measurement, Todd Hewitt broth
Protocol: (§1) Susceptibilities to the compounds were determined using the National Committee for Clinical Laboratory Standards (NCCLS) M7-A6 broth microdilution method. Cation-adjusted Mueller-Hinton broth (Ca^2+, 25 μg/mL; Mg^2+, 12.5 μg/mL) microdilution panels were prepared to contain antimicrobial doubling dilution concentrations of an appropriate range. DMSO (dimethylsulfoxide) controls were incorporated into the panel to mimic the quantity of DMSO used in dissolving some of the compounds at the higher concentrations. Each final panel well volume was 100 μL with a bacterial inoculum of 5×10^5 CFU (colony forming units)/mL of the relevant bacterium. Panels were read following 16 to 20 h of incubation at 35 degrees Celsius in ambient air. The MIC (minimum inhibitory concentration) was defined as the lowest concentration of antimicrobial inhibiting visible growth.
Generally following the procedure of Example 9, but using Todd Hewitt broth (beef heart digest) rather than Mueller-Hinton broth, MICs were initially measured against Streptococcus pneumoniae Group A for compounds of the present invention as follows: […]

AcpS enzyme = AcpS enzyme (Escherichia coli, UniProt P24224); assay: Measurement of AcpS inhibition ([3H]acetyl-CoA incorporation into apo-ACP); format: biochemical; details: % activity vs blank-subtracted counts; for activity at 50 µM / % AcpS activity at 50 uM: test compound 50 uM; for remaining activity at 500 µM / % AcpS activity @ 500 uM: test compound 500 uM
Protocol: [^3H]Acetyl-CoA was mixed as 1 volume of Perkin Elmer NET290 radiolabeled stock (e.g. 0.1 mCi/ml, 3.7 Ci/mmol in Na-acetate, pH 4.5-5.0=27 μM) with 1.2 volumes of 1 mM unlabelled acetyl-CoA (Sigma). Trichloroacetic acid was prepared as a 10% w/v solution. Bovine serum albumin was prepared as a 25 mg/ml solution in water. DTT was prepared as a 50 mM solution in water.
• 1. A standard reaction contained the following in a total volume of 10 μl:
• 2. Tubes were incubated at RT. [^3H]acetyl-CoA was added last to start the reaction. To stop the reaction, 2 μl was removed to a 1.5-ml microfuge tube containing 800 μl cold 10% TCA. Up to four time points were collected for each reaction, e.g. at 5 min, 10 min, 30 min, and 60 min. • 3. 20 μl of 25 mg/ml BSA was added to each tube, mixed and incubated on ice for 10 min, then centrifuged at 12,000 g for 5 min to form a pellet. Supernatant was removed using P1000. • 4. Each pellet was washed twice with 800 μl of cold 10% TCA each time, then centrifuged at 12,000 g for 5 min after each wash. The supernatant was discarded. Each pellet was resuspended in 50 μl of formic acid. The suspension was transferred to a scintillation vial and radioactivity was measured in 2 ml of liquid scintillation cocktail.
The random (stochastic) error in scintillation counting is proportional to the square root of the counts (not dpm) accumulated in the counting period; i.e. 10% for 100, 3.3% for 1,000, 1% for 10,000, etc. Provided radioactive counts (dpm) are in the thousands, the assay provides useful data. Results are reported in terms of % activity with respect to the blank-subtracted counts for working substrate. A % activity of less than about 40% is indicative of AcpS enzyme inhibition by the test compound at that concentration.

[2] = tested on: Methicillin-Resistant Staph. aureus (MRSA); assay: MIC, NCCLS M7-A6 broth microdilution, MRSA; format: cell-based; details: 16 to 20 h, 35 degrees Celsius; for MIC: Staphylococcus aureus, MRSA
Protocol: as §1

E. coli D22 = assay: MIC, NCCLS M7-A6 broth microdilution, E. coli D22; format: cell-based; details: 35 degrees Celsius; for MIC: Escherichia coli, D22, 16 to 20 h; for MIC E coli D22: 16 to 20 h
Protocol: as §1

AcpS enzyme, sequence (P24224 whole entry): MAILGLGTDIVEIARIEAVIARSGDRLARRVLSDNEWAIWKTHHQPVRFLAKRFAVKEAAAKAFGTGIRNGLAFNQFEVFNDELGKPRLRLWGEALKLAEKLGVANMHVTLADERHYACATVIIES

Row | Structure (SMILES) | MIC [1] | activity at 50 µM (AcpS enzyme) | remaining activity at 500 µM (AcpS enzyme) | MIC [2] | MIC (E. coli D22) | % AcpS activity at 50 uM (AcpS enzyme) | % AcpS activity @ 500 uM (AcpS enzyme) | MIC MRSA [2] | MIC E coli D22 (E. coli D22)
1 | Cc1c(-c2nnn[nH]2)sc(-c2ccc(Cl)cc2C(C)C)c1-c1ccc(Cl)cc1C(C)C [DNM0631, 5-(4,5-Bis(4-chloro-2-isopropylphenyl)-3-methylthiophen-2-yl)-1H-tetrazole] | < 0.25 µM | – | – | – | – | – | – | – | –
2 | Cc1c(-c2nnn[nH]2)sc(-c2ccc(C)c3ccccc23)c1-c1ccc(C)c2ccccc12 [DNM0620, 5-(4,5-Bis(4-methylnaphthalen-1-yl)-3-methylthiophen-2-yl)-1H-tetrazole] | < 0.25 µM | – | – | – | – | – | – | – | –
3 | Cc1ccc(-c2cc(-c3nn[nH]n3)cc(-c3ccc(C)c4ccccc34)c2)c2ccccc12 [DNM0461, 5-(3,5-Bis(4-methylnaphthalen-1-yl)phenyl)-2H-tetrazole] | – | 13.4% | 0.85% | 1 µM (≈ 0.427 µg/mL) | > 125 µM | – | – | – | –
4 | Cc1ccc(-c2cc(-c3nn[nH]n3)cc(-c3ccc(C)cc3-c3ccccc3)c2)c(-c2ccccc2)c1 [DNM0516] | – | – | – | – | – | 32.01% | 5% | 2 µM (≈ 0.957 µg/mL) | >125 µM
5 | Clc1cccc(-c2ccccc2-c2cc(-c3nn[nH]n3)cc(-c3ccccc3-c3cccc(Cl)c3)c2)c1 [DNM0493] | – | – | – | – | – | 25.28% | 2.7% | 4 µM (≈ 2.08 µg/mL) | >125 µM
6 | c1ccc(-c2ccccc2-c2cc(-c3nnn[nH]3)sc2-c2ccccc2-c2ccccc2)cc1 [DNM0489, 5-(4,5-Di(biphenyl-2-yl)thiophen-2-yl)-1H-tetrazole] | – | 17.9% | 0% | 2 µM (≈ 0.913 µg/mL) | > 125 µM | – | – | – | –
7 | FC(F)(F)c1ccccc1-c1cc(-c2nnn[nH]2)sc1-c1ccccc1C(F)(F)F [DNM0549, 5-(4,5-Bis(2-(trifluoromethyl)phenyl)thiophen-2-yl)-1H-tetrazole] | – | 71.3% | 0.48% | 30 µM (≈ 13.2 µg/mL) | > 125 µM | – | – | – | –
8 | Cc1ccc(C2(c3cccc(Cl)c3)C=C(c3nnn[nH]3)SC2)c2ccccc12 (stereo not drawn) [DNM0575, 5-(4-(5-Chlorophenyl)-4-(4-methylnaphthalen-1-yl)thiophen-2-yl)-1H-tetrazole] | – | 5.86% | 0.23% | 8 µM (≈ 3.24 µg/mL) | > 125 µM | – | – | – | –
9 | Clc1ccc(-c2cc(-c3ccc(Cl)cc3)cc(-c3nn[nH]n3)c2)cc1 [DNM0470, 5-(3,5-Bis(4-chlorophenyl)phenyl)-2H-tetrazole] | – | – | 27.7% | 4 µM (≈ 1.47 µg/mL) | 125 µM (≈ 45.9 µg/mL) | – | – | – | –
10 | Cc1ccc(-c2sc(-c3nnn[nH]3)cc2-c2ccc(Cl)cc2)c2ccccc12 [DNM0572, 5-(4-(4-Chlorophenyl)-5-(4-methylnaphthalen-1-yl)thiophen-2-yl)-1H-tetrazole] | – | 4.41% | 0.51% | 8 µM (≈ 3.22 µg/mL) | > 125 µM | – | – | – | –
11 | CC(C)c1ccc(-c2cc(-c3nnn[nH]3)sc2-c2ccc(C(C)C)cc2)cc1 [DNM0512, 5-(4,5-Bis(4-isopropylphenyl)thiophen-2-yl)-1H-tetrazole] | – | 37.3% | 0.7% | 8 µM (≈ 3.11 µg/mL) | > 125 µM | – | – | – | –
12 | c1ccc(-c2cc(-c3nnn[nH]3)sc2-c2ccccc2)cc1 [DNM0535] | – | – | – | – | – | 92.62% | 3.48% | 125 µM (≈ 38 µg/mL) | >125 µM
13 | Cc1ccc(-c2cc(-c3nnn[nH]3)sc2-c2ccc(C)c3ccccc23)c2ccccc12 [DNM0486, 5-(4,5-Bis(4-methylnaphthalen-1-yl)thiophen-2-yl)-1H-tetrazole] | – | 0.82% | 0.16% | 2 µM (≈ 0.865 µg/mL) | > 125 µM | – | – | – | –
14 | Cc1ccc(-c2ccc(-c3ccc(C)c4ccccc34)c(-c3nnn[nH]3)c2)c2ccccc12 [DNM0446, 5-(2,5-Bis(4-methylnaphthalen-1-yl)phenyl)-1H-tetrazole] | – | – | 25.4% | 4 µM (≈ 1.71 µg/mL) | > 125 µM | – | – | – | –
15 | c1ccc(-c2cc(-c3nnn[nH]3)sc2-c2ccccc2-c2ccsc2)c(-c2ccsc2)c1 [DNM0559, 5-(4,5-Bis(2-(thiophen-3-yl)phenyl)thiophen-2-yl)-1H-tetrazole] | – | 7.01% | 0.5% | 2 µM (≈ 0.937 µg/mL) | > 125 µM | – | – | – | –
16 | Cc1ccc(-c2cc(-c3ccc(Cl)cc3)cc(-c3nnn[nH]3)c2)c2ccccc12 [DNM0480, 5-(4′-Chloro-5-(4-methylnaphthalen-1-yl)biphenyl-3-yl)-1H-tetrazole] | – | 7.35% | 2.04% | 4 µM (≈ 1.59 µg/mL) | 125 µM (≈ 49.6 µg/mL) | – | – | – | –
17 | c1ccc(Oc2ccccc2-c2cc(-c3nnn[nH]3)sc2-c2ccccc2Oc2ccccc2)cc1 [DNM0536, 5-(4,5-Bis(2-phenoxyphenyl)thiophen-2-yl)-1H-tetrazole] | – | 8.25% | 0.2% | 8 µM (≈ 3.91 µg/mL) | 125 µM (≈ 61.1 µg/mL) | – | – | – | –
